According to patent US7666898B2, “Multivalent indole compounds and use thereof as phospholipase-A2 inhibitors” (Ilypsa, Inc., priority 2005, dated 2010):
Like-named read-outs stand apart in the source and are kept apart here.

Tests used:
[1] = target: T1, human group 1B PLA2 (hps PLA2) (Homo sapiens, UniProt P04054); assay: Fluorimetric PLA2 inhibition assay, human (Example 8); type: biochemical
T1 construct: made in house; host or cells: E. coli
Description: (§1) In this example, a fluorimetric assay procedure was used to evaluate the indole and indole-related compounds of the invention as inhibitors of group 1B phospholipase A2 (PLA2) from human, mouse and porcine.
(§2) In general, this assay used a phosphatidylmethanol substrate with a pyrene fluorophore on the terminal end of the sn-2 fatty acyl chain. Without being bound by theory, close proximity of the pyrenes from neighboring phospholipids in a phospholipid vesicle caused the spectral properties to change relative to that of monomeric pyrene. Bovine serum albumin was present in the aqueous phase and captured the pyrene fatty acid when it is liberated from the glycerol backbone owing to the PLA2-catalyzed reaction. […] The effect of a given inhibitor and inhibitor concentration on human, mouse and porcine phospholipase was determined.
(§3) Recombinant human and mouse group 1B PLA2 were cloned and expressed in E. coli as insoluble inclusion bodies. The inclusion bodies were isolated and purified by sonicating cell pellet in lysis buffer (50 mM Tris-HCl pH 7.0, 250 mM NaCl, 0.5% Triton 100), centrifugation at 12,000×g, and washing three times in washing buffer (20 mM Tris-HCl pH 7.0, 250 mM NaCl, 0.5% Triton 100). Then the inclusion bodies were dissolved in dissolving buffer (50 mM Tris-HCl pH 7.0, 250 mM NaCl, 6 M Guanidine-HCl, 1 mM DTT) and dialyzed four times against 10 volumes of refolding buffer (20 mM Tris-HCl pH 7.0, 250 mM NaCl, 0.5M Guanidine-HCl, 5% (w/w) Glycerol, 2 mM reduced glutathione and 0.4 mM oxidized glutathione) at 4° C. The correctly refolded proteins were concentrated using Amicon Stirred cell under nitrogen pressure (<70 psi) and dialyzed against 10 volumes of 50 mM Tris-HCl pH 7.0, 250 mM NaCl and 5% (w/w) glycerol. Human and mouse group 1B PLA2 were further purified by High S ion exchange and gel filtration columns.
(§4) The following reagents were prepared: • 1. PPyrPM stock solution (1 mg/ml) in toluene:isopropanol (1:1) • 2. […]
(§5) The following procedure was performed to evaluate the inhibitory potency of the evaluated compounds. • 1. […]

[2] = target: Porcine group 1 B phospholipase A2 (pps PLA2) (Sus scrofa, UniProt P00592); assay: Fluorimetric PLA2 inhibition assay, porcine (Example 8)
Sequence of Porcine group 1 B phospholipase A2 (pps PLA2) (P00592 23-146): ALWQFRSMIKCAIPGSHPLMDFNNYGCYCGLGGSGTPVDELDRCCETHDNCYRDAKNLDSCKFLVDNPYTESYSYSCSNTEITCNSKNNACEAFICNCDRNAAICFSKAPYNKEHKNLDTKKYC
Description: as §1, §2
The following reagents and equipments were obtained from commercial vendors: • 1. Porcine group 1 B phospholipase A2 • 2. 1-hexadecanoyl-2-(1-pyrenedecanoyl)-sn-glycero-3-phosphomethanol (PPyrPM) • 3. Bovine serum albumin (BSA, fatty acid free) • 4. 2-Amino-2-(hydroxymethyl)-1,3-propanediol, hydrochloride (Tris-HCl) • 5. […]
as §5
Evaluated compounds were tested in duplicate and their values were averaged to plot the inhibition curve and calculate the IC50. […]

[3] = target: T2, mouse group 1B PLA2 (mps PLA2) (Mus musculus, UniProt Q9Z0Y2); assay: Fluorimetric PLA2 inhibition assay, mouse (Example 8); type: biochemical
T2 construct: made in house; host or cells: E. coli
T2 sequence (Q9Z0Y2 23-146): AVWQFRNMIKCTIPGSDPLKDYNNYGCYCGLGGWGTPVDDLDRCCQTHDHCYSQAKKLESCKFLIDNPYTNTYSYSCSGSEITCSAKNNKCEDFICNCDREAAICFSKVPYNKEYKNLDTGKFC
Description: as §1, §2, §3, §4, §5

human PLA2 IB enzyme = human PLA2 IB enzyme (Homo sapiens, UniProt P04054); conditions: pyrene substrate release from vesicles (Singer, Ghomashchi et al. 2002); read-out: IC50 versus the human PLA2 IB enzyme; cited from earlier work
Sequence of human PLA2 IB enzyme (P04054 23-148): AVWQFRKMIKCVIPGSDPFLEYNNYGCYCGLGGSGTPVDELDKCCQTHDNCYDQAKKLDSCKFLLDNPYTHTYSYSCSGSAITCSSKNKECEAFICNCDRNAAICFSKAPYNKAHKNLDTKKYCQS

[4] = Pharmokinetic study of ILY-4001 (Example 6C); type: in vivo, mice; conditions: 30 mg/kg oral
Description: Bioavailability was calculated as a ratio of AUC-oral/AUC-intravenous (IV). To determine this ratio, a first set of subject animals were given a measured intravenous (IV) dose of ILY-4001, followed by a determination of ILY-4001 levels in the blood at various time points after administration (e.g., 5 minutes through 24 hours). Another second set of animals was similarly dosed using oral administration, with blood levels of ILY-4001 determined at various time points after administration (e.g., 30 minutes through 24 hours). The level of ILY-4001 in systemic circulation were determined by generally accepted methods (for example as described in Evans, G., A Handbook of Bioanalysis and Drug Metabolism. Boca Raton, CRC Press (2004)). Specifically, […]/mass spectrometry/mass spectrometry (LC/MS/MS) analytical methods were used to quantitate plasma concentrations of ILY-4001 after oral and intravenous administration. Pharmacokinetic parameters that were measured include Cmax, AUC, tmax, t1/2, and F (bioavailability).
In this procedure, ILY-4001 was dosed at 3 mg/kg IV and 30 mg/kg oral. […] This indicated about a 72% level of non-absorption of ILY-4001 from the GI tract into systemic circulation.

mouse PLA2 IB enzyme = mouse PLA2 IB enzyme (Mus musculus, UniProt Q9Z0Y2); conditions: pyrene substrate release from vesicles (Singer, Ghomashchi et al. 2002); read-out: IC50 versus the mouse PLA2 IB enzyme; cited from earlier work
Sequence of mouse PLA2 IB enzyme (Q9Z0Y2 23-146): as the sequence (Q9Z0Y2 23-146) above

[5] = tested on: C57BL/6 wild-type mice on high fat/high sucrose diabetogenic diet; assay: In-vivo evaluation in mice on high fat/high sucrose diabetogenic diet (Example 5); design: species or system mouse; conditions: for fasting glucose levels: low dose 25 mg/kg/day
Description: ILY-4001 (FIG. 2) was evaluated as a PLA2 IB inhibitor in a set of experiments using wild-type mice and genetically deficient PLA2 (−/−) mice (also referred to herein as PLA2 knock-out (KO) mice). In these experiments, wild-type and PLA2 (−/−) mice were maintained on a high fat/high sucrose diet, details of which are described below.
Briefly, four groups were set up, each having six mice. Three of the groups included six wild-type PLA2 (+/+) mice in each group (eighteen mice total), and one of the groups included six genetically deficient PLA2 (−/−) mice. One of the wild-type groups was used as a wild-type control group, and was not treated with ILY-4001. The other two wild-type groups were treated with ILY-4001—one group at a lower dose (indicated as “L” in Table 1) of 25 mg/kg/day, and the other at a higher dose (indicated as “H” in Table 1) of 90 mg/kg/day. The group comprising the PLA2 (−/−) mice was used as a positive control group.
The experimental protocol used in this study was as follows. The four groups of mice, including wild type and isogenic PLA2 (−/−) C57BL/J mice were acclimated for three days on a low fat/low carbohydrate diet. After the three day acclimation phase, the animals were fasted overnight and serum samples taken to establish baseline plasma cholesterol, triglyceride, and glucose levels, along with baseline body weight. The mice in each of the treatment groups were then fed a high fat/high sucrose diabetogenic diet (Research Diets D12331). 1000 g of the high fat/high sucrose D12331 diet was composed of casein (228 g), DL-methionine (2 g), maltodextrin 10 (170 g), sucrose (175 g), soybean oil (25 g), hydrogenated coconut oil (333.5 g), mineral mix S10001 (40 g), sodium bicarbonate (10.5 g), potassium citrate (4 g), vitamin mix V10001 (10 g), and choline bitartrate (2 g). This diet was supplemented with ILY-4001 treatments such that the average daily dose of the compound ingested by a 25 g mouse was: 0 mg/kg/day (wild-type control group and PLA2 (−/−) control group); 25 mg/kg/day (low-dose wild-type treatment group), or 90 mg/kg/day (high-dose wild-type treatment group). The animals were maintained on the high fat/high sucrose diet, with the designated ILY-4001 supplementation, for a period of ten weeks.
Body weight measurements were taken for all animals in all treatment and control groups at the beginning of the treatment period and at 4 weeks and 10 weeks after initiation of the study. (See Example 5A). Blood draws were also taken at the beginning of the treatment period (baseline) and at 4 weeks and 10 weeks after initiation of the study, in order to determine fasting glucose (See Example 5B). Cholesterol and triglyceride levels were determined from blood draws taken at the beginning of the treatment (baseline) and at ten weeks. (See Example 5C).

Stability at low pH = type: physicochemical
Caco-2 cells [6] = assay: In-vitro Caco-2 permeability study (Example 6B); conditions: Caco-2 monolayers, apical to basolateral
Description: (§6) Briefly, the human colon adenocarcinoma cell line, Caco-2, was used to model intestinal drug absorption.
(§7) In order to determine the compound permeability, Caco-2 cells (ATCC) were seeded into 24-well transwells (Costar) at a density of 6×10^4 cells/cm^2. Monolayers were grown and differentiated in MEM (Mediatech) supplemented with 20% FBS, 100 U/ml penicillin, and 100 ug/ml streptomycin at 37° C., 95% humidity, 95% air, and 5% CO2. The culture medium was refreshed every 48 hours. After 21 days, the cells were washed in transport buffer made up of HBSS with HEPES and the monolayer integrity was evaluated by measuring the trans-epithelial electrical resistance (TEER) of each well. […]
(§8) 150 ul samples were collected for LC/MS analysis from the basolateral well at 15 min, 30 min, 45 min, 1 hr, 3 hr, and 6 hr time points; replacing the volume with pre-warmed transport buffer after each sampling. The apparent permeabilities in cm/s were calculated based on the equation: Papp=(dQ/dt)×(1/C0)×(1/A) where dQ/dt is the permeability rate corrected for the sampling volumes over time, C0 is the initial concentration, and A is the surface area of the monolayer (0.32 cm^2). At the end of the experiment, TEER measurements were retaken and wells with readings below 350 ohm-cm^2 indicated diminished monolayer integrity such that the data from these wells were not valid for analysis.

[7] = Bioavailability study of Compound 5-24 (Example 9); type: in vivo, male CD-1 Mus Musculus mice; conditions: oral ˜30 mg/kg vs IV ˜3 mg/kg, mice
Description: Bioavailability was determined for Compound 5-24 (ILY-V-24) as follows. Generally, the bioavailability was calculated by comparing a timecourse of the concentration of the test compound in the serum of mice after an intra-venous (IV) dosing, versus the timecourse of the concertration following an oral dosing of the test compound. The IV dose was ˜3 mg/kg, the oral dose was ˜30 mg/kg.
Oral Formulation. The oral formulation was prepared as follows. To sterile flask, 90 ml of sterile Milli-Q water was added. 9 ml of PEG-400 was added (final concentration of 9%). 50 ul of Tween-80 was added (final concentration of 0.05%). 0.9 g of CMC was weighed and added (final concentration of 0.9% w/v). […]
Study Design. […] On study day 0, all the animals were weighed, dosages were calculated and the animals were dosed by oral route (PO) or (IV) as outlined below in Table 7. […]
Calculations. Bioavailabilty was calculated as follows. Individual doses were calculated based on an average of body weights taken on the day of dosing. Serum concentrations of test compound, as well as the actual concentration of dosing solutions, were measured using 2-dimensional Mass Spectrophotometry after Liquid Chromatography (LC MS/MS). […]

Caco-2 cells [8] = tested on: Caco-2 cells
Description: as §6, §7, §8

[9] = low and high doses (25 and 90 mg/kg/day), 10 weeks

T1 sequence (P04054 23-148): as the sequence (P04054 23-148) above

Q: For “2-(3-Aminooxalyl-1-{12-[3-aminooxalyl-4-(1-carboxy-2-methyl-propoxy)-2-methyl-indol-1-yl]-dodecyl}-2-methyl-1H-indol-4-yloxy)-3-methyl-butyric acid [ILY-v-44]”, which IC50 ([1]; PPyrPM vesicles, 37° C., read-out: ILYPSA IC50 (μM) hps PLA2) is on record?
A: The IC50 was 0.28 µM.

Q: What about the IC50 ([2]; read-out: ILYPSA IC50 (μM) pps PLA2, PPyrPM vesicles, 37° C.) of the same compound?
A: Its IC50 is 0.05 µM.

Q: And the IC50 ([3]; PPyrPM vesicles, 37° C., read-out: ILYPSA IC50 (μM) mps PLA2)?
A: Its IC50 is 0.48 µM.

Q: What does the source list for Cc1c(C(=O)C(N)=O)c2c(OCC(=O)O)cccc2n1Cc1ccccc1-c1ccccc1 [ILY-4001, 2-(3-(2-amino-2-oxoacetyl)-1-(biphenyl-2-ylmethyl)-2-methyl-1H-indol-4-yloxy)acetic acid]?
A: IC50 (human PLA2 IB enzyme): ~200 nM; level of non-absorption from the GI tract into systemic circulation [4]: ~72%; IC50 (mouse PLA2 IB enzyme): ~150 nM; body weight gain ([5]; 25 mg/kg/d and 90 mg/kg/d in diet, week 4 and week 10, vs wild-type control group): significantly reduced body weight gains; plasma levels of cholesterol [5, 9]: substantially reduced; plasma levels of triglycerides [5, 9]: substantially reduced; fasting glucose levels ([5]; week four): moderately beneficial effect; fasting glucose levels ([5]; week ten): a beneficial effect was not observed; stability at low pH (Stability at low pH): stable at low pH; apparent permeability (cm/s) (Caco-2 cells [6]): around 1.66×10^−7 cm/s

Q: For Cc1c(C(=O)C(N)=O)c2c(OCC(=O)O)cccc2n1CCCCCCCCSCCCCCCCCSCCCCCCCCn1c(C)c(C(=O)C(N)=O)c2c(OCC(=O)O)cccc21 [ILY-v-24, 2,2′-(1,1′-(8,8′-(Octane-1,8-diylbis(sulfanediyl))bis(octane-8,1-diyl))bis(3-(2-amino-2-oxoacetyl)-2-methyl-1H-indole-4,1-diyl))bis(oxy)diacetic acid], which bioavailability [7] is on record?
A: Its bioavailability is 4-8%.

Q: With “(3-Aminooxalyl-1-benzyl-2-methyl-1H-indol-4-yloxy)-phenyl-acetic acid [ILY-IV-32]” as the compound, how does the “ILYPSA % inhibition at 15 μM hps PLA2” value ([1]; 15 μM compound) read?
A: Its value is 41.73%.

Q: And the “ILYPSA % inhibition at 15 μM pps PLA2” value ([2]; 15 μM compound)?
A: The value was 38.5%.

Q: What about the “ILYPSA % inhibition at 15 μM mps PLA2” value ([3]; 15 μM compound) of the same compound?
A: Its value is 47.49%.

Q: With Lucifer Yellow as the compound, how does the “apparent permeability (cm/s)” value (Caco-2 cells [8]) read?
A: Its value is “around 2.82×10^−7+/−0.37×10^−7 cm/s”.
